Measurements published in patent US20230241124A1, “ISOTONIC LIPID EMULSION” (priority 2020, published 2023).
Structures can show the parent of a compound that is named as a salt.

Tested on: cardiac ischemia
Assay: dosage study in the monkey model of cardiac ischemia
Assay type: in vivo
Procedure: This was done in groups of n=8 animals. […] The control groups consisted of sham operated animals undergoing no ischemia, and 2 groups undergoing cardiac ischemia: a saline control (n=8), and a “positive control” group (n=8) treated with Metoprolol tartrate (3 mg/kg), as usually applied to MI patients.

[1] = day 7, positive control 3 mg/kg

COCCc1ccc(OCC(O)CNC(C)C)cc1 (stereo not shown) [Metoprolol tartrate]
NT Pro BNP concentration [1]: 45.7 ± 15.4 pg/mL
ratio of infarcted heart area [1]: 5.80+/−1.83%
index of myocardial contractility (−dp/dt) (positive control 3 mg/kg): remained unchanged
reduction of infarcted area versus saline control (positive control 3 mg/kg): 55%
